Consider twelve molecules from PubChem BioAssay AID256 (DTP/NCI, 2004).

Each structure is given as a SMILES string. “And” between values parts separate entries of the source, which are not always exact repeats. Identical values can stand only once. Toxic doses and inconclusive results are not listed.

For the assay, the system named is CD2F1 mice, L1210 leukemia ip, survival T/C. As to the kind of experiment: NCI In Vivo Anticancer Drug Screen. Data for tumor model L1210 Leukemia (intraperitoneal) in CD2F1 (CDF1) mice. The settings on record: higher = longer survival. A digest of the protocol:
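Ratio T/C, where T is the treated-group value and C the vehicle-dosed control value, from mice implanted with a transplantable tumor.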

The mark [1] stands for this setting: endpoint: mean survival time, dose: 100.0 mg/kg/injection, schedule: Q04DX003 (ip), vehicle: saline with Tween-80.
[2] abbreviates: endpoint: mean survival time, dose: 200.0 mg/kg/injection, schedule: Q04DX003 (ip), vehicle: saline with Tween-80.
The mark [3] stands for this setting: endpoint: mean survival time, dose: 400.0 mg/kg/injection, schedule: Q04DX003 (ip), vehicle: saline with Tween-80.
Where [4] appears, read: endpoint: mean survival time, dose: 50.0 mg/kg/injection, schedule: Q01DX009 (ip), vehicle: saline with Tween-80.

As for `O=c1o[nH]c(-c2ccccc2)c1-c1ccccc1`, the T/C (endpoint: mean survival time, dose: 50.0 mg/kg/injection, schedule: Q04DX003 (ip), vehicle: saline with Tween-80) is 95 % of control; the T/C under setting [1] is 98 % of control; the T/C under setting [2] is 106 % of control.

Regarding `CCOC(=O)Cc1nnc(N)s1`, the T/C by setting is: under setting [1], 96 % of control; under setting [2], 100 % of control; under setting [3], 102 % of control.

`[N-]=[N+]=NC1CC(n2ccc(=O)[nH]c2=O)OC1CO` (centres undefined): the T/C reads like this: (endpoint: median survival time, dose: 12.5 mg/kg/injection, schedule: Q01DX005 (ip), vehicle: saline) 101 % of control; (endpoint: median survival time, dose: 25.0 mg/kg/injection, schedule: Q01DX005 (ip), vehicle: saline) 102 % of control; (endpoint: median survival time, dose: 50.0 mg/kg/injection, schedule: Q01DX005 (ip), vehicle: saline) 100 % of control; (endpoint: median survival time, dose: 100.0 mg/kg/injection, schedule: Q01DX005 (ip), vehicle: saline) 94 % of control; (endpoint: median survival time, dose: 200.0 mg/kg/injection, schedule: Q01DX005 (ip), vehicle: saline) 100 % of control.

Consider `O=c1ccc2ccc(O)cc2o1`, for which the T/C is, setting by setting: under setting [4], 101 % of control; (endpoint: mean survival time, dose: 100.0 mg/kg/injection, schedule: Q01DX001 (ip), vehicle: saline) 103 % of control; (endpoint: mean survival time, dose: 100.0 mg/kg/injection, schedule: Q01DX009 (ip), vehicle: saline with Tween-80) 93 % of control; (endpoint: mean survival time, dose: 200.0 mg/kg/injection, schedule: Q01DX001 (ip), vehicle: saline) 108 % of control; (endpoint: mean survival time, dose: 200.0 mg/kg/injection, schedule: Q01DX009 (ip), vehicle: saline with Tween-80) 97 % of control; (endpoint: mean survival time, dose: 400.0 mg/kg/injection, schedule: Q01DX001 (ip), vehicle: saline) 103 % of control.

As to `Nc1ccn([C@@H]2C=C(CO)[C@@H](O)[C@H]2O)c(=O)n1`, the T/C (endpoint: median survival time, dose: 0.44 mg/kg/injection, schedule: Q01DX009 (ip), vehicle: saline) was 162 % of control and 168 % of control; the T/C (endpoint: median survival time, dose: 0.45 mg/kg/injection, schedule: Q01DX009 (ip), vehicle: saline) was 153 % of control; the T/C (endpoint: median survival time, dose: 0.67 mg/kg/injection, schedule: Q01DX009 (ip), vehicle: saline) was 180 % of control (2×) and 191 % of control; the T/C (endpoint: median survival time, dose: 0.67 mg/kg/injection, schedule: Q01DX009 (oral), vehicle: saline) is 101 % of control; the T/C (endpoint: median survival time, dose: 1.5 mg/kg/injection, schedule: Q01DX009 (oral), vehicle: saline) was 155 % of control and 205 % of control; the T/C (endpoint: median survival time, dose: 2.0 mg/kg/injection, schedule: Q04DX003 (ip), vehicle: saline) was 171 % of control. The T/C was 117 % of control and 246 % of control (endpoint: median survival time, dose: 2.25 mg/kg/injection, schedule: Q01DX009 (ip), vehicle: saline); 157 % of control and 225 % of control (endpoint: median survival time, dose: 2.25 mg/kg/injection, schedule: Q01DX009 (oral), vehicle: saline); 93 % of control (endpoint: median survival time, dose: 4.0 mg/kg/injection, schedule: Q01DX009 (ip), vehicle: saline); 191 % of control (endpoint: median survival time, dose: 4.0 mg/kg/injection, schedule: Q04DX003 (ip), vehicle: saline); 123 % of control and 104 % of control (endpoint: median survival time, dose: 5.05 mg/kg/injection, schedule: Q01DX009 (oral), vehicle: saline); 183 % of control (endpoint: median survival time, dose: 8.0 mg/kg/injection, schedule: Q04DX003 (ip), vehicle: saline). Besides, the T/C by setting is: (endpoint: median survival time, dose: 250.0 micrograms/kg/injection, schedule: Q03HX024 (ip), vehicle: saline) 187 % of control; (endpoint: median survival time, dose: 500.0 micrograms/kg/injection, schedule: Q03HX024 (ip), vehicle: saline) 216 % of control; (endpoint: median survival time, dose: 2000.0 micrograms/kg/injection, schedule: Q03HX024 (ip), vehicle: saline) 96 % of control.

Regarding `CCCCCCCP(=O)(CCCCCCC)CCCCCCC`, the T/C runs as follows: (endpoint: mean survival time, dose: 25.0 mg/kg/injection, schedule: Q01DX001 (ip), vehicle: saline with Tween-80) 107 % of control; (endpoint: mean survival time, dose: 50.0 mg/kg/injection, schedule: Q01DX001 (ip), vehicle: saline with Tween-80) 96 % of control; (endpoint: mean survival time, dose: 100.0 mg/kg/injection, schedule: Q01DX001 (ip), vehicle: saline with Tween-80) 100 % of control.

Turning to `O=C(C(c1ccccc1)C(F)(F)F)N1CCCC1` (centres undefined), the T/C was 97 % of control under setting [1], 100 % of control under setting [2] and 97 % of control under setting [3].

In the case of `N#Cc1cccc(CN2CCCNCC2)c1`, the T/C reads like this: (endpoint: mean survival time, dose: 12.5 mg/kg/injection, schedule: Q01DX009 (ip), vehicle: water) 98 % of control; (endpoint: mean survival time, dose: 25.0 mg/kg/injection, schedule: Q01DX009 (ip), vehicle: water) 100 % of control; (endpoint: mean survival time, dose: 50.0 mg/kg/injection, schedule: Q01DX009 (ip), vehicle: water) 96 % of control; (endpoint: mean survival time, dose: 100.0 mg/kg/injection, schedule: Q01DX009 (ip), vehicle: water) 105 % of control.

Turning to `CCCCC(/C=N/N=C/C(CC)CCCC)CC` (centres undefined), the T/C (endpoint: mean survival time, dose: 6.25 mg/kg/injection, schedule: Q01DX005 (ip), vehicle: saline with Tween-80) was 92 % of control; the T/C (endpoint: mean survival time, dose: 6.25 mg/kg/injection, schedule: Q01DX009 (ip), vehicle: saline with Tween-80) was 91 % of control; the T/C (endpoint: mean survival time, dose: 6.25 mg/kg/injection, schedule: Q04DX002 (ip), vehicle: saline) is 98 % of control; the T/C (endpoint: mean survival time, dose: 12.5 mg/kg/injection, schedule: Q01DX005 (ip), vehicle: saline with Tween-80) was 92 % of control; the T/C (endpoint: mean survival time, dose: 12.5 mg/kg/injection, schedule: Q01DX009 (ip), vehicle: saline with Tween-80) is 91 % of control; the T/C (endpoint: mean survival time, dose: 12.5 mg/kg/injection, schedule: Q04DX002 (ip), vehicle: saline) is 103 % of control. Moreover, the T/C runs as follows: (endpoint: mean survival time, dose: 25.0 mg/kg/injection, schedule: Q01DX005 (ip), vehicle: saline with Tween-80) 89 % of control; (endpoint: mean survival time, dose: 25.0 mg/kg/injection, schedule: Q01DX009 (ip), vehicle: saline with Tween-80) 95 % of control; (endpoint: mean survival time, dose: 25.0 mg/kg/injection, schedule: Q04DX002 (ip), vehicle: saline) 103 % of control; (endpoint: mean survival time, dose: 50.0 mg/kg/injection, schedule: Q01DX005 (ip), vehicle: saline with Tween-80) 92 % of control; under setting [4], 91 % of control; (endpoint: mean survival time, dose: 50.0 mg/kg/injection, schedule: Q04DX002 (ip), vehicle: saline with Tween-80) 95 % of control. The T/C reads like this: (endpoint: mean survival time, dose: 50.0 mg/kg/injection, schedule: Q04DX002 (ip), vehicle: saline) 106 % of control; (endpoint: mean survival time, dose: 200.0 mg/kg/injection, schedule: Q04DX002 (ip), vehicle: saline with Tween-80) 88 % of control.

Regarding `CSc1ccc(C2=CCCCC2)cc1`, the T/C runs as follows: (endpoint: mean survival time, dose: 100.0 mg/kg/injection, schedule: Q04DX003 (ip), vehicle: saline) 91 % of control; (endpoint: mean survival time, dose: 200.0 mg/kg/injection, schedule: Q04DX003 (ip), vehicle: saline) 91 % of control; (endpoint: mean survival time, dose: 400.0 mg/kg/injection, schedule: Q04DX003 (ip), vehicle: saline) 96 % of control.

For the molecule `CCCC(=O)Nc1ncnc2c1[nH]c(=O)n2C1OC2COP(=O)(O)OC2C1O` (centres undefined), the T/C is, setting by setting: (endpoint: mean survival time, dose: 6.25 mg/kg/injection, schedule: Q01DX005 (ip), vehicle: water) 97 % of control; (endpoint: mean survival time, dose: 12.5 mg/kg/injection, schedule: Q01DX005 (ip), vehicle: water) 97 % of control; (endpoint: mean survival time, dose: 25.0 mg/kg/injection, schedule: Q01DX005 (ip), vehicle: water) 93 % of control; (endpoint: mean survival time, dose: 50.0 mg/kg/injection, schedule: Q01DX005 (ip), vehicle: water) 93 % of control; (endpoint: mean survival time, dose: 100.0 mg/kg/injection, schedule: Q01DX005 (ip), vehicle: water) 95 % of control.

On to `CCOC/C(O)=C(\C#N)c1ccc(Cl)cc1`, for which the T/C was 94 % of control and 104 % of control (endpoint: mean survival time, dose: 12.5 mg/kg/injection, schedule: Q01DX009 (ip), vehicle: other); 104 % of control (endpoint: mean survival time, dose: 12.5 mg/kg/injection, schedule: Q04DX003 (ip), vehicle: other); 93 % of control (endpoint: mean survival time, dose: 25.0 mg/kg/injection, schedule: Q01DX001 (ip), vehicle: other); 95 % of control and 100 % of control (endpoint: mean survival time, dose: 25.0 mg/kg/injection, schedule: Q01DX009 (ip), vehicle: other); 116 % of control and 111 % of control (endpoint: mean survival time, dose: 25.0 mg/kg/injection, schedule: Q04DX002 (ip), vehicle: other); 101 % of control (endpoint: mean survival time, dose: 25.0 mg/kg/injection, schedule: Q04DX003 (ip), vehicle: other). Moreover, the T/C reads like this: (endpoint: mean survival time, dose: 50.0 mg/kg/injection, schedule: Q01DX001 (ip), vehicle: other) 100 % of control; (endpoint: mean survival time, dose: 50.0 mg/kg/injection, schedule: Q01DX009 (ip), vehicle: other) 93 % of control and 95 % of control; (endpoint: mean survival time, dose: 50.0 mg/kg/injection, schedule: Q04DX002 (ip), vehicle: other) 94 % of control and 99 % of control; (endpoint: mean survival time, dose: 50.0 mg/kg/injection, schedule: Q04DX003 (ip), vehicle: other) 101 % of control.
